Tests used:
[1] = tested on: [Ca^2+]i in Jurkat T cells; assay: receptor-stimulated Ca2+ influx in Jurkat T cells (anti-CD3 mAb OKT3); assay type: cell-based, human; design: key to T cell [Ca^2+]i (pre) / T cell [Ca^2+]i: NE: no effect; ND: not determined; conditions: 10 or 30 μM drug; for T cell [Ca^2+]i: effect the same post- and pre- T cell receptor stimulation; for T cell [Ca^2+]i (post): drug added post T cell receptor stimulation; for T cell [Ca^2+]i (pre): drug added pre T cell receptor stimulation
Experimental: Initially, all drugs are screened using Jurkat T cells incubated with indo-1/AM as outlined below. In the event that there is an effect of the drug on the maximum [Ca^2+]i reached following treatment of the cells with the anti-CD3 mAb […], the drug is evaluated for any effects on the spectral characteristics of indo-1 as outlined in Haverstick and Gray, Mol. Biol. Cell (1993) 4:173. If there is an effect of the drug on the spectral characteristics of indo-1 , the drug is further examined for spectral effects on the combination of fura-red and fluo-3. If there is no effect of the drug on the fura-red/fluo-3 combination, the drug is examined for effects on the maximum [Ca^2+]i reached following OKT3 treatment of cells incubated with 5 μM fura-red and […] as outlined below.
Jurkat cells are incubated in RPMI-1640 plus 5% fbs in the presence of the acetoxymethyl ester of either indo-1 (1 μM) or the combination of fura-red (5 μM) with fluo-3 (1 μM) for one hour at 37° C. Cells are washed three times in buffer A [[…] 4-(2-hydroxyethyl)-1-piperazine ethanesulfonic acid (HEPES), pH 7.4, 3 MM KCl, 1 mM MgCl2, 1 mM CaCl2, 140 mM NaCl, 0.1% glucose] containing 1% fbs and suspended to a final concentration of 1×10^6/ml. Cells are then placed in the 37° C. jacketed cell holder of the SLM 8000C. Antigen receptor engagement is mimicked by the addition of the anti-CD3 monoclonal antibody OKT3 (Gray et al, J. Exp. Med. (1988) 167:1963; Gray et al, J. Immunol. 142:1631). The effect of drug added prior to receptor stimulation or at the plateau phase of Ca^2+ entry is determined as follows:
Prior drug: 10 or 30 μM drug @ 30 seconds, 1 μg/ml OKT3 at 90 seconds
Post drug: 1 μg/ml OKT3 at 30 second, 10 or 30 μM drug @ 120 seconds

[2] = tested on: MDA-468 human breast cancer cells; assay: MDA-468 cell proliferation, tetrazolium dye; assay type: cell-based; design: key to MDA PROLIF: NE: no effect; ND: not determined; conditions: human breast cancer cell proliferation, 48 hours
Experimental: (§1) The effect of various drugs on the proliferation of Jurkat T cells, MDA-468 human breast cancer cells and PC3 human prostate cancer cells was determined by incubating the cells with the indicated concentrations of drug for 48 hours. The number of viable cells remaining at the end of the incubation period was evaluated using the procedure outlined in Example 4.
(§2) Cells are plated in triplicate in a 96-well flat-bottomed plate (Jurkat: 5e4 cells/well in RPMI-1640 plus 5% fbs; MDA468: 2.5e4 per well in DMEM plus 5% fbs and 11 μg/ml insulin) in the absence (control) or presence of drug at 3, 10, 30, and 100 μM. An additional control of 100 μM drug in RPMI-1640 plus 5% fbs or DMEM plus 5% fbs and 11 μg/Ml insulin with no cells is included with each run to control for possible drug interactions with the dye. The plate is then placed in a 5% CO2 37° C. incubator for 44 to 48 hours. 20 μl of dye solution containing a tetrazolium dye (3-(4,5-dimethylthiazol-2-yl)-5-(3-carboxymethoxyphenyl)-2-(4-sulfophenyl)-2H-tetrazolium, Owen's reagent) plus coupling reagent (phenazine methosulfate) is added to each well, the plate is returned to the incubator, and the absorbance at 490 nm is read using an ELISA plate reader 3 to 4 h (Jurkat cells) or 2 to 3 h (MDA-468 cells) later. All data are presented as percent of control (no drug addition). With this protocol, it is possible to determine the effect of 5 drugs at 4 concentrations in a single 96-well plate as outlined below: […]

[3] = tested on: VG Ca^2+ current in Jurkat cells; assay: perforated patch clamp, voltage gated (VG) Ca2+ current; assay type: cell-based, human
Experimental: (§3) All recordings were performed using the perforated patch method (Horn et al, J. Gen. Physiol. (1988) 92:145) of the gigaseal patch clamp technique (Hammil et al, Pflugers Arch (1981) 391:85) with microelectrodes of 5-10 megohm series resistance. In all solutions for voltage clamp, K^+ was replaced with Cs^+ to block outward K^+ currents (Fox et al, J. Physiol. (Lond.) (1987) 392:149). The bath solution contained (in mM): NaCl, 155; CsCl, 4.5; CaCl2, 2; MgCl2, 1; D-glucose, 5; HEPES, 10 (pH 7.4 with NaOH). The pipette solution contained (in mM): CsCl, 55; Cesium methanesulfonate, 70; CaCl2, 1; MgCl2, 7; HEPES, 10 (pH 7.3 with NaOH). Nystatin was made as a stock solution of 6 mg/100 μl DMSO, and 2 μl of the stock was added to 1 ml of the pipette solution for use. Both pipette and bath solutions were 290-300 mOsm. Experiments were performed on cells at room temperature using the Axopatch-1D patch clamp (Axon Instruments, Foster City, Calif.) after correction of junction potentials and leak subtraction. Records were low-pass filtered at 500 Hz, and the data were collected, stored and analyzed using the pClamp software program (Axon Instruments). For the non-voltage gated current traces, data is presented either as the tracing from a chart recorder or from the digital data in which the current was measured at 5 second intervals and plotted as individual points.

[4] = tested on: NVG current in Jurkat cells; assay: perforated patch clamp, non-voltage gated (NVG) current; assay type: cell-based, human
Experimental: as §3

[5] = tested on: [Ca^2+]i in MDA-468 cells; assay: EGF receptor-stimulated Ca2+ influx in MDA-468 cells; assay type: cell-based, human; design: key: NE: no effect; ND: not determined; conditions: for MDA [CA^2+]i: effect the same post- and pre- EGF receptor stimulation
Experimental: MDA468 cells are incubated with either indo-1 or the combination of fura-red/fluo-3 for 1 hour while still adherent in the maintenance flask in DMEM plus 5% fbs and 1 μg/ml insulin. Cells are removed by gentle scraping and washed three times in buffer A containing 1% charcoal stripped fbs (Nelson et al, Br. J. Cancer (1991) 63:933). The cells are then suspended to a final concentration of 1e6/ml and used as above in the SLM. For the human breast cancer cells, Ca^2+ entry is stimulated by the addition of 25 ng/ml EGF, rather than the antibody used above.

Jurkat T cells = assay: Jurkat cell proliferation, tetrazolium dye; assay type: cell-based, human; design: key to T cell PROLIF: NE: no effect; ND: not determined; conditions: 48 hours
Experimental: as §1, §2

SMILES | T cell [Ca^2+]i [1] | MDA PROLIF [2] | MDA [CA^2+]i [5] | T cell PROLIF (Jurkat T cells) | further results
COc1cc(CCO)ccc1O [3-methoxy, 4-hydroxyphenylethanol] | NE | NE | – | – | –
COc1cc(C(O)C(O)CO)ccc1O (stereo not drawn) [3-methoxy, 4-hydroxyphenylglycerol] | NE | NE | – | – | –
[Cl][Mn][Cl] [MnCl2] | – | – | – | – | increase of the VG Ca^2+ current ([3]; 0.3 mM Mn^2+ in medium containing 2 mM Ca^2+): about 10%; effect on the VG Ca^2+ current ([3]; amiloride 100 μM, MnCl2 300 μM, NiCl2 1 mM, W-7 alone (unstimulated current)): not blocked; effect on the thapsigargin-induced NVG current ([4]; membrane potential −60 mV, 300 nM thapsigargin, amiloride 100 μM, MnCl2 300 μM, NiCl2 1 mM, W-7 30 μM, NDGA 10 μM): reversibly blocked
Nc1cc(-c2ccncc2)c[nH]c1=O [amrinone] | NE | NE | – | – | –
CC(C)COCC(CN(Cc1ccccc1)c1ccccc1)N1CCCC1 (stereo not drawn) [bepridil] | – | ↓ | ↑ | ↓ | T cell [Ca^2+]i (post) [1]: ↓ (post); T cell [Ca^2+]i (pre) [1]: NE (pre)
CC(NC(C)(C)C)C(=O)c1cccc(Cl)c1 (stereo not drawn) [bupropion] | NE | NE | – | NE | –
CN1CCN(C(c2ccccc2)c2ccc(Cl)cc2)CC1 (stereo not drawn) [chlorcyclizine] | NE | ↓ | ↑ | – | –
C(=C\c1ccccc1)/CN1CCN(C(c2ccccc2)c2ccccc2)CC1 [cinnarizine] | ↓ | NE | NE | ↓ | –
COc1cc(/C=C/C(=O)CC(=O)/C=C/c2ccc(O)c(OC)c2)ccc1O [curcumin] | – | NE | – | ↓ | –
CN1CCN(C(c2ccccc2)c2ccccc2)CC1 [cyclizine] | NE | NE | – | – | –
O=C1CN(/N=C/c2ccc(-c3ccc([N+](=O)[O-])cc3)o2)C(=O)N1 [datrolene] | NE | NE | NE | – | –
CCN(CC)C(=O)N1CCN(C)CC1 [diethylcarbamazine] | NE | NE | NE | NE | –
CC(NCCC(c1ccccc1)c1ccccc1)c1ccccc1 (stereo not drawn) [fendiline] | ↓ | ↓ | ↑ | ↓ | –
Fc1ccc(C(c2ccc(F)cc2)N2CCN(C/C=C/c3ccccc3)CC2)cc1 [flunarizine] | ↓ | NE | NE | ↓ | –
OCCN1CCN(CCCN2c3ccccc3Sc3ccc(C(F)(F)F)cc32)CC1 [fluphenazine] | ↓ | ↓ | ↓ | ↓ | –
OCCOCCN1CCN(C(c2ccccc2)c2ccc(Cl)cc2)CC1 (stereo not drawn) [hydroxyzine] | NE | NE | – | NE | –
COC(=O)C1=C(C)NC(C)=C(C(=O)OC(C)C)C1c1cccc2nonc12 (stereo not drawn) [isradipine] | ↓ | NE | – | NE | –
Cc1cccc(C)c1NC(=O)CN1CCN(CCCC(c2ccc(F)cc2)c2ccc(F)cc2)CC1 [lidoflazine] | ↓ | (↓) | – | ↓ | –
Cc1cccc(CN2CCN(C(c3ccccc3)c3ccc(Cl)cc3)CC2)c1 (stereo not drawn) [meclizine] | – | NE | – | (↓) | T cell [Ca^2+]i (post) [1]: ↓ (post); T cell [Ca^2+]i (pre) [1]: NE (pre)
CN1CCN2c3ccccc3Cc3ccccc3C2C1 (stereo not drawn) [mianserin] | NE | NE | – | NE | –
COC(=O)C1=C(C)NC(C)=C(C(=O)OCCN(C)Cc2ccccc2)C1c1cccc([N+](=O)[O-])c1 (stereo not drawn) [nicardipine] | – | – | NE | – | –
O=C(O)c1cccnc1Nc1cccc(C(F)(F)F)c1 [niflumic acid] | – | NE | – | (↓) | T cell [Ca^2+]i (post) [1]: ↓ (post); T cell [Ca^2+]i (pre) [1]: NE (pre)
C1CCC(C(CC2CCCCN2)C2CCCCC2)CC1 (stereo not drawn) [perhexiline] | – | ↓ | ↑ | ↓ | T cell [Ca^2+]i (post) [1]: ↑ (post); T cell [Ca^2+]i (pre) [1]: ↓(pre)
CCn1cc(C(=O)O)c(=O)c2cnc(N3CCNCC3)nc21 [pipenidic acid] | NE | NE | – | NE | –
c1ccc2nc(N3CCNCC3)ccc2c1 [quipazine] | NE | NE | – | – | –
COc1ccc2cc1Oc1ccc(cc1)C[C@H]1c3cc(c(OC)cc3CCN1C)Oc1c(OC)c(OC)cc3c1[C@H](C2)N(C)CC3 [tetrandrine, 6,6′,7,12-tetramethoxy-2,2′-dimethyl-baman] | – | – | – | – | T cell [Ca^2+]i (pre) [1]: NE (pre); MDA [CA^2+]i (pre) ([5]; drug added pre EGF receptor stimulation): NE (pre)
Cc1nc(C)c(C)nc1C [tetranethylpyrazine] | NE | NE | – | – | –
C/C=C(/C)C(=O)O[C@H]1C(C)=C2[C@H]([C@@H]1OC(=O)CCCCCCC)[C@@](C)(OC(C)=O)C[C@H](OC(=O)CCC)[C@@]1(O)[C@H]2OC(=O)[C@@]1(C)O [thapsigargin] | – | – | – | – | mean maximum VG Ca^2+ current following addition ([3]; 300 nM thapsigargin, n=10, unstimulated 18.7 pA): 30.6 pA; mean maximum magnitude of the induced NVG current ([4]; imposed membrane potential −60 mV, n=38): 3.6 pA
O=c1n(CCCN2CCN(c3cccc(Cl)c3)CC2)nc2ccccn12 [trazodone] | NE | NE | – | NE | –

— patent US6413967B1, “Inhibition of novel calcium entry pathway in electrically non-excitable cells acting as an anti-proliferative therapy” (The University of Virginia Patents Foundation, priority 1995, dated 2002)
